{
  "source": "patent EP3406693B1",
  "about": "“FREEZER OIL FOR R32 REFRIGERANT AND COMPOSITION COMPRISING SAME” (NOF Corporation, priority 2016, dated 2017)",
  "assay_type_in_all_cases": "physicochemical",
  "key": {"Acid number (JIS C2101)": {"assay": "Acid number (JIS C2101)", "protocol": "According to JIS C2101, the acid number of ester A1 and the like was measured."}, "Pour point (JIS K2269)": {"assay": "Pour point (JIS K2269)", "protocol": "According to JIS K2269, the pour point of ester A1 and the like was measured."}, "[1]": {"assay": "Two-layer separation temperature of ester A1 to A8 and R32 refrigerant", "conditions": "ester 2 g + R32 refrigerant 6 g, range -60°C to +40°C", "protocol": "Using the aforementioned ester A1 to ester A8 as a refrigerating machine oil, a two-layer separation temperature of ester A1 to ester A8 and R32 refrigerant was measured as follows. To be specific, any of ester A1 to ester A8 (2 g) and R32 refrigerant (6 g) were sealed in a pressure-resistant glass tube and cooled from 40°C at a rate of 1°C/min by using an ethanol bath containing dry ice. The temperature at which ester and R32 refrigerant was separated in two layers was measured within the range of -60°C to +40°C by visual observation. One with a two-layer separation temperature of +40°C or above was evaluated as ×, +40°C to -10°C as ○, and - 10°C or below as ⊙."}, "[2]": {"assay": "Cloud point of additive in 1,1,1,3,3-pentafluorobutane/ethyl acetate (JIS 2269)", "conditions": "10 mass % in 1,1,1,3,3-pentafluorobutane/ethyl acetate 75/25 (mass ratio)", "protocol": "As the aforementioned additive, any can be used as long as it has a cloud point of not less than -30°C when measured under the aforementioned conditions. Only one kind of the aforementioned additive may be used or two or more kinds thereof may be used in combination. […] The cloud point of the aforementioned additive as measured under the above-mentioned conditions is preferably not less than -20°C, more preferably not less than -15°C. The cloud point can be measured according to JIS 2269 \"Testing Methods for Pour Point and Cloud Point of Crude Oil and Petroleum Products\".\nThe cloud point when the additive (triphenyl phosphate and glycerol monooleate) used in the production of the below-mentioned refrigerating machine oil composition was dissolved at a concentration of 10 mass % in a mixed solvent of 1,1,1,3,3-pentafluorobutane and ethyl acetate at a mass ratio (1,1,1,3,3-pentafluorobutane/ethyl acetate) of 75/25 was measured according to JIS 2269. The cloud point of triphenyl phosphate measured under these conditions was -3°C and the cloud point of glycerol monooleate was 25°C."}},
  "data": [
    {"smiles": "CCCCOC(=O)CC(O)(CC(=O)OCCCC)C(=O)OCCCC", "note": "[ester A6]", "values": [
      {"measurement": "acid number", "setting": "Acid number (JIS C2101)", "result": "0.1 or below mgKOH/g"},
      {"measurement": "pour point", "setting": "Pour point (JIS K2269)", "result": -50, "unit": "°C"},
      {"measurement": "two-layer separation temperature", "setting": "[1]; cooled from 40°C at 1°C/min, visual", "result": "≤ -60", "unit": "°C"},
      {"measurement": "two-layer separation temperature (evaluation)", "setting": "[1]", "result": "⊙ (- 10 °C or below as ⊙)"}
    ]},
    {"smiles": "CCCCCCCC/C=C\\CCCCCCCC(=O)OCC(O)CO", "note": "(stereo not drawn) [glycerol monooleate]", "values": [
      {"measurement": "cloud point", "setting": "[2]", "result": 25, "unit": "°C"}
    ]},
    {"smiles": "O=P(Oc1ccccc1)(Oc1ccccc1)Oc1ccccc1", "note": "[triphenyl phosphate]", "values": [
      {"measurement": "cloud point", "setting": "[2]", "result": -3, "unit": "°C"}
    ]}
  ]
}
